According to patent US9346839B2:
Entries after “also recorded” stand apart in the source; their conditions may differ.

What was measured:
mAPP mice = assay: Hippocampal long-term potentiation (LTP) in slices from treated mice; format: in vivo
Protocol: LTP was induced by theta-burst stimulation (TBS) 20 minutes after baseline recordings in hippocampal slices from Non-Tg mice treated with vehicle (n=9 slices from 3 mice), Non-Tg mice treated with Compound 8 (n=9 slices from 3 mice), mAPP mice treated with vehicle (n=8 slices from 3 mice), and mAPP mice treated with Compound 8 (n=8 slices from 3 mice). LTP is expressed as percentage potentiation of baseline (100%) (FIG. 5A).
LTP is expressed as percentage potentiation of baseline (100%) (FIG. 7A).
Synaptic failure in AD is largely reflected by impaired long-term synaptic plasticity in terms of long-term potentiation (LTP). […] Representative field excitatory post-synaptic potentials (fEPSP) waveforms are provided in FIGS. 5A and 7A and the residual potentiation from fEPSP slopes occurring over the last 5 minutes of LTP recording are provided in FIGS. 5B and 7B.

Cells = assay: Trypan blue dye exclusion (cell viability and toxicity); format: cell-based; conditions: 1, 10, 50, 100 μM for 48 to 66 hours, compared to vehicle
Protocol: The trypan blue dye exclusion is commonly used for measuring cell viability and toxicity. 48-66 hours after treatment of ABAD compounds, the trypan blue exclusion experiments were performed. In brief, cells plated in 96-well plates were washed with the balanced salt solution (Hanks-Balanced Salts/HESS) once, then replaced with HBSS including trypan blue solution to the final concentration of 0.2% (Sigma-Aldrich, St. Louis, Mo.), and mixed thoroughly. After standing at room temperature for 5 minutes, the cells were washed with HBSS again and then maintained in the well with HBSS. Both the stained and unstained cells in each well were counted under a microscope (Nikon E400). The calculated percentage of unstained cells represented the percentage of viable cells. Cell viability(%)=total viable cells (unstained)/total cells (stained and unstained)×100.
Effect of ABAD Inhibitor on Cell Survival and Toxicity. The effect of ABAD inhibitors on cell viability and toxicity was assessed using MTT reduction assay and trypan blue exclusion, which are widely used to assess cell survival and toxicity and to screen for drugs toxicity. Cells were treated with a range of concentrations of ABAD compound (4 and 8) at 1, 10, 50, 100 μM for 48 to 66 hours.

Structure (SMILES)	hippocampal long-term potentiation (LTP) (mAPP mice)	increased percentage of trypan blue-positive cells (Cells)
COc1ccc2nc(N[C@@H](c3ccc(O)cc3)P(=O)(OC)OC)sc2c1 (racemic) [Compound 8, Dimethyl ((4-hydroxyphenyl)((6-methoxybenzo[d]thiazol-2-yl)amino)methyl)phosphonate]	impairments were diminished; also recorded: protective effects	did not exhibit
COC(=O)c1cc([C@H](Nc2nc3ccc(OC)cc3s2)P(=O)(OC)OC)ccc1O [Compound 4, Methyl 5-((dimethoxyphosphoryl)((6-methoxybenzo[d]thiazol-2-yl)amino)methyl)-2-hydroxybenzoate]	impairments were diminished; also recorded: protective effects	did not exhibit
